From paper PMC6915887, “Inhibition of human carboxylesterases by ginsenosides: structure–activity relationships and inhibitory mechanism” (Chinese Medicine, 2019)
Read-outs that look alike come from different tables or passages of the source.

Assays:
hCES1A = molecular target: T1, hCES1A (Homo sapiens, UniProt P23141); experiment: hCES1A inhibition assay (DME hydrolysis in HLM); type: biochemical; settings: for inhibition of hCES1A-mediated DME hydrolysis (residual activity screen): HLM, ginsenoside 100 μM, result in words;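 for all read-outs here: Read-out is D-luciferin luminescence formed from DME (3 µM) after 10 min at 37 °C in pH 6.5 PBS, HLM 1 µg/mL, inhibitor preincubated 3 min, oleanic acid as positive control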
T1 construct: tissue Bioreclamation IVT lot no; X008067; host or cells: pooled human liver microsomes (50 donors)
T1 sequence (P23141 18-567): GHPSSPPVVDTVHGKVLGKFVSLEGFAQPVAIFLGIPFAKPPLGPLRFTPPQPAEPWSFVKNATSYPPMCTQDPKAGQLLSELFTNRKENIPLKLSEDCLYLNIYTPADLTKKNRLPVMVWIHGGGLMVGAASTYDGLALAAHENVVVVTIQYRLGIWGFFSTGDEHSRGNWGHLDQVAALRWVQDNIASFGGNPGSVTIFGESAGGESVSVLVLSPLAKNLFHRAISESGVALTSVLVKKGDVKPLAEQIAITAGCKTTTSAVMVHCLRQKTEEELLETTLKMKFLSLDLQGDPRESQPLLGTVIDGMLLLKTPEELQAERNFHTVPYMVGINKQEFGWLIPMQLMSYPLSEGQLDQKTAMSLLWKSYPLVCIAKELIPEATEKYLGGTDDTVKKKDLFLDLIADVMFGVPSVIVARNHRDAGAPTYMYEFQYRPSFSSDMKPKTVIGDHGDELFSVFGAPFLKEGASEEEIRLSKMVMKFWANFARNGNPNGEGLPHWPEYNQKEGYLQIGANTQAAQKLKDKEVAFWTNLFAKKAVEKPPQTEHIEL

hCES2A = molecular target: T2, hCES2A (Homo sapiens, UniProt O00748); experiment: hCES2A inhibition assay (FD hydrolysis in HLM); type: biochemical; settings: for Specificity (hCES1A/hCES2A): ratio of IC50 values in HLM; for inhibition of hCES2A-mediated FD hydrolysis (residual activity screen): HLM, ginsenoside 100 μM, result in words;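 for all read-outs here: HLM at 1 µg/mL in 0.1 M PBS pH 7.4, kinetic read at 37 °C every 30 s over 30 min, triplicate runs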
T2 construct: tissue Bioreclamation IVT lot no; X008067; host or cells: pooled human liver microsomes (50 donors)
T2 sequence (O00748 27-559): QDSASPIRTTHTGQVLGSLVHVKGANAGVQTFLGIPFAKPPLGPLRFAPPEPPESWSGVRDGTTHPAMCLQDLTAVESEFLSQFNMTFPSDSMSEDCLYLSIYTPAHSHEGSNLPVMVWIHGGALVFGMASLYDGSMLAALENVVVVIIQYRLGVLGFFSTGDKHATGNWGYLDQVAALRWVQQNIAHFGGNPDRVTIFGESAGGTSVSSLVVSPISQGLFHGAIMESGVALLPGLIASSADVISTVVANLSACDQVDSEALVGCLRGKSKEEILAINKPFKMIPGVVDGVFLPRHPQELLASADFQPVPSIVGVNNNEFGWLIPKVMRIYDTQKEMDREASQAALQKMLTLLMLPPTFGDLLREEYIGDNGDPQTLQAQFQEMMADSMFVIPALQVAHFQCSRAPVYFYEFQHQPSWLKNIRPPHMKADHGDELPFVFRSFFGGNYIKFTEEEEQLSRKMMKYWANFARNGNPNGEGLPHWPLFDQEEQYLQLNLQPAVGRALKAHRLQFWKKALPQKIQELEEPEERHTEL

[1] = HLM as enzyme source, DME hydrolysis as probe reaction, read-out: IC50 (μM) hCES1A
[2] = HLM as enzyme source, FD hydrolysis as probe reaction, read-out: IC50 (μM) hCES2A

Row | Structure (SMILES) | IC50 (hCES1A; [1]) [µM] | Specificity (hCES1A/hCES2A) (hCES2A) | inhibition of hCES2A-mediated FD hydrolysis (residual activity screen) (hCES2A) | IC50 (hCES2A; [2]) [µM] | other results
1 | CC(C)=CCC[C@](C)(O[C@@H]1O[C@H](CO)[C@@H](O)[C@H](O)[C@H]1O)[C@H]1CC[C@]2(C)[C@@H]1[C@H](O)C[C@@H]1[C@@]3(C)CC[C@H](O)C(C)(C)[C@@H]3CC[C@]12C [C-K, ginsenoside C-K] | > 100 | – | – | – | –
2 | CC(C)=CCC[C@](C)(O[C@@H]1O[C@H](CO)[C@@H](O)[C@H](O)[C@H]1O)[C@H]1CC[C@]2(C)[C@@H]1[C@H](O)C[C@@H]1[C@@]3(C)CC[C@H](O)C(C)(C)[C@@H]3[C@@H](O)C[C@]12C [F1, ginsenoside F1] | > 100 | > 2.70 | – | – | –
3 | CC(C)=CCC[C@](C)(O[C@@H]1O[C@H](CO)[C@@H](O)[C@H](O)[C@H]1O)[C@H]1CC[C@]2(C)[C@@H]1[C@H](O)C[C@@H]1[C@@]3(C)CC[C@H](O[C@@H]4O[C@H](CO)[C@@H](O)[C@H](O)[C@H]4O)C(C)(C)[C@@H]3CC[C@]12C [F2] | > 100 | – | – | – | –
4 | CC(C)=CC/C=C(/C)C1CC[C@]2(C)C1[C@H](O)CC1[C@@]3(C)CC[C@H](O)C(C)(C)C3[C@@H](O[C@@H]3O[C@H](CO)[C@@H](O)[C@H](O)[C@H]3O[C@@H]3O[C@@H](C)[C@H](O)[C@@H](O)[C@H]3O)C[C@]12C (some centres unmarked) [F4] | > 100 | > 2.22 | – | – | –
5 | CC1(C)CCC[C@](C)([C@H]2CC[C@]3(C)[C@@H]2[C@H](O)C[C@@H]2[C@@]4(C)CC[C@H](O)C(C)(C)[C@@H]4CC[C@]23C)O1 [Panaxadiol, panaxadiol] | 6.95 ± 1.29 | 1.84 | strong or moderate inhibition | – | –
6 | CC1(C)CCC[C@](C)([C@H]2CC[C@]3(C)[C@@H]2[C@H](O)C[C@@H]2[C@@]4(C)CC[C@H](O)C(C)(C)[C@@H]4[C@@H](O)C[C@]23C)O1 [Panaxatriol, panaxatriol] | 34.9 ± 6.16 | – | – | – | –
7 | CC(C)=CCC[C@](C)(O[C@@H]1O[C@H](CO)[C@@H](O)[C@H](O)[C@H]1O)C1CC[C@]2(C)C1[C@H](O)CC1[C@@]3(C)CC[C@H](O)C(C)(C)C3[C@@H](O[C@@H]3O[C@H](CO)[C@@H](O)[C@H](O)[C@H]3O[C@@H]3OC[C@@H](O)[C@H](O)[C@H]3O)C[C@]12C (some centres unmarked) [R1, ginsenoside R1] | > 100 | – | – | > 100 | –
8 | CC(C)=CCC[C@](C)(O[C@@H]1O[C@H](CO[C@@H]2O[C@H](CO)[C@@H](O)[C@H](O)[C@H]2O)[C@@H](O)[C@H](O)[C@H]1O)[C@H]1CC[C@]2(C)[C@@H]1[C@H](O)C[C@@H]1[C@@]3(C)CC[C@H](O[C@@H]4O[C@H](CO)[C@@H](O)[C@H](O)[C@H]4O[C@@H]4O[C@H](CO)[C@@H](O)[C@H](O)[C@H]4O)C(C)(C)[C@@H]3CC[C@]12C [Rb1] | > 100 | – | hardly inhibit | > 100 | inhibition of hCES1A-mediated DME hydrolysis (residual activity screen) (hCES1A): hardly inhibit
9 | CC(C)=CCC[C@](C)(O[C@@H]1O[C@H](CO[C@@H]2OC[C@H](O)[C@H](O)[C@H]2O)[C@@H](O)[C@H](O)[C@H]1O)[C@H]1CC[C@]2(C)[C@@H]1[C@H](O)C[C@@H]1[C@@]3(C)CC[C@H](O[C@@H]4O[C@H](CO)[C@@H](O)[C@H](O)[C@H]4O[C@@H]4O[C@H](CO)[C@@H](O)[C@H](O)[C@H]4O)C(C)(C)[C@@H]3CC[C@]12C [Rb2] | > 100 | – | hardly inhibit | > 100 | inhibition of hCES1A-mediated DME hydrolysis (residual activity screen) (hCES1A): hardly inhibit
10 | CC(C)=CCC[C@](C)(O[C@@H]1O[C@H](CO[C@@H]2OC[C@@H](O)[C@H](O)[C@H]2O)[C@@H](O)[C@H](O)[C@H]1O)[C@H]1CC[C@]2(C)[C@@H]1[C@H](O)C[C@@H]1[C@@]3(C)CC[C@H](O[C@@H]4O[C@H](CO)[C@@H](O)[C@H](O)[C@H]4O[C@@H]4O[C@H](CO)[C@@H](O)[C@H](O)[C@H]4O)C(C)(C)[C@@H]3CC[C@]12C [Rb3] | > 100 | – | hardly inhibit | > 100 | inhibition of hCES1A-mediated DME hydrolysis (residual activity screen) (hCES1A): hardly inhibit
11 | CC(C)=CCC[C@](C)(O[C@@H]1O[C@H](CO[C@@H]2O[C@@H](CO)[C@H](O)[C@H]2O)[C@@H](O)[C@H](O)[C@H]1O)[C@H]1CC[C@]2(C)[C@@H]1[C@H](O)C[C@@H]1[C@@]3(C)CC[C@H](O[C@@H]4O[C@H](CO)[C@@H](O)[C@H](O)[C@H]4O[C@@H]4O[C@H](CO)[C@@H](O)[C@H](O)[C@H]4O)C(C)(C)[C@@H]3CC[C@]12C [Rc] | > 100 | >1.22 | – | – | –
12 | CC(C)=CCC[C@](C)(O[C@@H]1O[C@H](CO)[C@@H](O)[C@H](O)[C@H]1O)[C@H]1CC[C@]2(C)[C@@H]1[C@H](O)C[C@@H]1[C@@]3(C)CC[C@H](O[C@@H]4O[C@H](CO)[C@@H](O)[C@H](O)[C@H]4O[C@@H]4O[C@H](CO)[C@@H](O)[C@H](O)[C@H]4O)C(C)(C)[C@@H]3CC[C@]12C [Rd] | > 100 | > 7.12 | – | – | –
13 | CC(C)=CCC[C@](C)(O[C@@H]1O[C@H](CO)[C@@H](O)[C@H](O)[C@H]1O)[C@H]1CC[C@]2(C)[C@@H]1[C@H](O)C[C@@H]1[C@@]3(C)CC[C@H](O)C(C)(C)[C@@H]3[C@@H](O[C@@H]3O[C@H](CO)[C@@H](O)[C@H](O)[C@H]3O[C@@H]3O[C@@H](C)[C@H](O)[C@@H](O)[C@H]3O)C[C@]12C [Re, ginsenoside Re] | > 100 | – | hardly inhibit | > 100 | inhibition of hCES1A-mediated DME hydrolysis (residual activity screen) (hCES1A): hardly inhibit
14 | CC(C)=CCC[C@](C)(O[C@@H]1O[C@H](CO)[C@@H](O)[C@H](O)[C@H]1O)[C@H]1CC[C@]2(C)[C@@H]1[C@H](O)C[C@@H]1[C@@]3(C)CC[C@H](O)C(C)(C)[C@@H]3[C@@H](O[C@@H]3O[C@H](CO)[C@@H](O)[C@H](O)[C@H]3O)C[C@]12C [Rg1, ginsenoside Rg1] | > 100 | – | hardly inhibit | > 100 | inhibition of hCES1A-mediated DME hydrolysis (residual activity screen) (hCES1A): hardly inhibit
15 | CC(C)=CCC[C@](C)(O)[C@H]1CC[C@]2(C)[C@@H]1[C@H](O)C[C@@H]1[C@@]3(C)CC[C@H](O)C(C)(C)[C@@H]3[C@@H](O[C@@H]3O[C@H](CO)[C@@H](O)[C@H](O)[C@H]3O[C@@H]3O[C@@H](C)[C@H](O)[C@@H](O)[C@H]3O)C[C@]12C [Rg2, ginsenoside Rg2] | > 100 | – | hardly inhibit | > 100 | inhibition of hCES1A-mediated DME hydrolysis (residual activity screen) (hCES1A): hardly inhibit
16 | CC(C)=CCC[C@](C)(O)C1CC[C@]2(C)C1[C@H](O)CC1[C@@]3(C)CC[C@H](O[C@@H]4O[C@H](CO)[C@@H](O)[C@H](O)[C@H]4O[C@@H]4O[C@H](CO)[C@@H](O)[C@H](O)[C@H]4O)C(C)(C)C3CC[C@]12C (some centres unmarked) [Rg3] | > 100 | > 9.64 | – | – | –
17 | CC(C)=CCC[C@](C)(O)[C@H]1CC[C@]2(C)[C@@H]1[C@H](O)C[C@@H]1[C@@]3(C)CC[C@H](O)C(C)(C)[C@@H]3[C@@H](O[C@@H]3O[C@H](CO)[C@@H](O)[C@H](O)[C@H]3O)C[C@]12C [Rh1, ginsenoside Rh1] | – | – | – | – | IC50 (hCES1A): > 100 µM; IC50 (hCES2A): > 100 µM
18 | CC(C)=CCC[C@](C)(O)[C@H]1CC[C@]2(C)[C@@H]1[C@H](O)C[C@@H]1[C@@]3(C)CC[C@H](O[C@@H]4O[C@H](CO)[C@@H](O)[C@H](O)[C@H]4O)C(C)(C)[C@@H]3CC[C@]12C [Rh2] | – | > 18.86 | – | – | IC50 (hCES1A): > 100 µM
19 | CC(C)=CC/C=C(\C)[C@H]1CC[C@]2(C)[C@@H]1[C@H](O)C[C@@H]1[C@@]3(C)CC[C@H](O)C(C)(C)[C@@H]3[C@@H](O[C@@H]3O[C@H](CO)[C@@H](O)[C@H](O)[C@H]3O)C[C@]12C [Rh4] | > 100 | – | – | – | –
20 | CC1(C)CCC2(C(=O)OC3OC(CO)C(O)C(O)C3O)CCC3(C)C(=CCC4C5(C)CCC(OC6OC(C(=O)O)C(O)C(O)C6OC6OC(CO)C(O)C(O)C6O)C(C)(C)C5CCC43C)C2C1 (centres unmarked) [Ro] | > 100 | – | – | > 100 | –
21 | CC1(C)CC[C@]2(C(=O)O)CC[C@]3(C)C(=CC[C@@H]4[C@@]5(C)CC[C@H](O)C(C)(C)[C@@H]5CC[C@]43C)[C@@H]2C1 [oleanic acid, reference compound] | 0.1 | – | – | – | –
